Results published in paper PMC5603853, “Physicochemical, Stress Degradation Evaluation and Pharmacokinetic Study of AZGH102, a New Synthesized COX2 Inhibitors after I.V. and Oral Administration in Male and Female Rats” (Iranian Journal of Pharmaceutical Research : IJPR, 2017).
Converted amounts (≈) assume the structure as drawn. Where two headings read alike, the source gives them in different places.

Assays:
[1] = Forced degradation stability study (ICH guideline); type: physicochemical; design: Forced tests results, Mean ±SD: unit not given here; settings: for Forced tests results, Mean ±SD: n=3
Procedure: The stability study was conducted according to forced degradation protocol ICH guideline for new drug substance ([9]-[11]). The study evaluated the stability of AZGH 102 at acidic, basic, and neutral medium. Moreover, the effect of oxidative condition (H2O2, 3 and 30%), thermal degradation at solid state and photolysis on the stability of AZGH 102 was evaluated.

[2] = Pharmacokinetic study after intravenous administration; type: in vivo; settings: intravenous 10 mg/Kg; for AUC(0-inf) / C0 / Vd / clearance / half-life / k el: rat, plasma; for half-life: read-out: t1/2 β (converted); for k el: read-out: β (elimination rate constant) (converted)
Procedure: (§1) Male and female Wistar rats weighting 250 ± 10 g were used. They were housed in animal center of author’s institute. Each rat was housed in a cage which was kept at 25 ± 1 °C temperature and controlled humidity with 12 h light/dark cycle. Animals were fasted overnight before the experiment and had free access to water. The study protocol was approved by the local ethics committee for animal experiments of Shahid Beheshti University of Medical Sciences (Tehran, Iran).
(§2) The rats (12 male and 12 female) were randomly divided into four groups (6 rats/group) and assigned to receive AZGH 102 solution via intravenous (IV) and/or oral administration. The administered doses in both male and female groups for IV and oral studies were 10 mg/Kg and 20 mg/Kg, respectively. Blood samples were collected from the tail vein immediately prior to (blank sample) and at 0.08, 0.25, 0.5, 1, 2, 4, 6, 8, 10, 21 and 22 h after drug administration into heparinized micro-tubes. Blood samples were centrifuged at 1000 g for 10 min and the separated plasma samples were kept at – 20 °C until analysis.
(§3) Two-compartmental model was selected and pharmacokinetic analyses were performed using WinNonlin software (Pharsight Corporation, Mountain View, USA, Version 3.2). The following pharmacokinetic parameters were estimated: terminal elimination half-life (t1/2), area under the plasma concentration versus time curve from zero to the infinity (AUC 0-∞), distribution and elimination rate constants (α, β), y intercepts (A, B), volume of distribution (Vd), and total body clearance (CL). The peak plasma concentration (Cmax) and the time to reach Cmax (Tmax) for oral dose were obtained directly from the observed individual plasma concentration-time data.

[3] = Octanol/water partition coefficient (OECD Guideline No. 107); type: physicochemical; settings: 3 replications, read-out: log P (logarithm of octanol/water partition coefficient)
Procedure: (§4) Melting point was determined with an Electrothermal 9200 apparatus (UK). Moreover, aqueous solubility and octanol/water partition coefficient of the synthesized derivative was determined according to Organisation for Economic Co-operation and Development (OECD) Guideline for Testing of Chemicals, No.105 and No. 107, respectively ([6]-[8]).

COX-2 = settings: in comparison with celecoxib; cited from earlier work
[4] = Pharmacokinetic study after oral administration; type: in vivo; settings: for Cl / Ka / Vd / α (distribution rate constant) / AUC(0-inf) / Cmax / Tmax / half-life / k el: oral 20 mg/Kg; for bioavailability / AUC(0-inf) / Cmax / Tmax / half-life / k el: rat, plasma; for bioavailability: oral 20 mg/Kg vs IV 10 mg/Kg, read-out: F (absolute bioavailability); for half-life: read-out: t1/2 β (converted); for k el: read-out: β (elimination rate constant) (converted)
Procedure: as §1, §2, §3

[5] = Aqueous solubility (OECD Guideline No. 105); type: physicochemical; settings: thermodynamic from solid; water; 3 replications
Procedure: as §4

**Q.** Which results are given for `CS(=O)(=O)c1ccc(-c2cc(C(=O)O)c3cccc(C(=O)c4ccccc4)c3n2)cc1` [AZGH 102, 8-benzoyl-2-(4-(methylsulfonyl)phenyl)quinoline-4-carboxylic acid]?
**A.** Forced tests results, Mean ±SD ([1]; Hydrolysis (Acid), fraction recovered intact): 0.94±0.02; Forced tests results, Mean ±SD ([1]; Hydrolysis (Base)): 0.92±0.01; Forced tests results, Mean ±SD ([1]; Hydrolysis (Buffer pH=7)): 0.95±0.04; Forced tests results, Mean ±SD ([1]; Oxidative stress (H2O2-3%)): 0.94±0.02; Forced tests results, Mean ±SD ([1]; Oxidative stress (H2O2-30%)): 0.90±0.04; Forced tests results, Mean ±SD ([1]; Photodegradation (Acid)): 0.93±0.02; Forced tests results, Mean ±SD ([1]; Photodegradation (Base)): 0.96±0.04; Forced tests results, Mean ±SD ([1]; Photodegradation (Buffer pH=7)): 0.93±0.02; Forced tests results, Mean ±SD ([1]; Thermal Degradation (solid phase)): 0.95±0.03; recovered intact ([1]; in all of the examined stress conditions): more than 90%; α (distribution rate constant) ([2]; female Wistar rats): 3.87 ± 1.11 h⁻¹; α (distribution rate constant) ([2]; male Wistar rats): 2.98 ± 0.67 h⁻¹; AUC(0-inf) ([2]; female Wistar rats): 85.8 ± 9.23 µg·h/mL; C0 ([2]; female Wistar rats): 100 ± 14.1 µg/mL; Vd ([2]; female Wistar rats): 0.101 ± 0.0137 L; clearance ([2]; female Wistar rats): 0.491 mL/min; half-life ([2]; female Wistar rats): 2.38 ± 0.12 h; k el ([2]; female Wistar rats): 0.00015 s⁻¹; AUC(0-inf) ([2]; male Wistar rats): 91.3 ± 17.1 µg·h/mL; C0 ([2]; male Wistar rats): 113 ± 7.99 µg/mL; Vd ([2]; male Wistar rats): 0.0997 ± 0.0152 L; clearance ([2]; male Wistar rats): 0.47 mL/min; half-life ([2]; male Wistar rats): 2.23 ± 0.74 h; k el ([2]; male Wistar rats): 8.06e-05 s⁻¹; logP [3]: 3.75 ± 0.001; selectivity index (COX-1/COX-2 inhibitory potency) (COX-2): improved selectivity index; Cl ([4]; female Wistar rats): 29.15 ± 0.47 mL/h; Ka ([4]; female Wistar rats): 1.26 ± 0.34 h⁻¹; Vd ([4]; female Wistar rats): 156.27 ± 4.54 mL; α (distribution rate constant) ([4]; female Wistar rats): 3.70 ± 1.56 h⁻¹; Cl ([4]; male Wistar rats): 27.47 ± 1.81 mL/h; Ka ([4]; male Wistar rats): 0.69 ± 0.15 h⁻¹; Vd ([4]; male Wistar rats): 147.04 ± 9.43 mL; α (distribution rate constant) ([4]; male Wistar rats): 5.79 ± 2.33 h⁻¹; bioavailability ([4]; female Wistar rats): 25.6 ± 0.4%; bioavailability ([4]; male Wistar rats): 27 ± 1.85%; AUC(0-inf) ([4]; female Wistar rats): 43.9 ± 0.71 µg·h/mL; Cmax ([4]; female Wistar rats): 16.5 ± 1.05 µg/mL; Tmax ([4]; female Wistar rats): 0.5 h; half-life ([4]; female Wistar rats): 3.72 ± 0.1 h; k el ([4]; female Wistar rats): 5.28e-05 s⁻¹; AUC(0-inf) ([4]; male Wistar rats): 49.3 ± 3.38 µg·h/mL; Cmax ([4]; male Wistar rats): 19.6 ± 1.96 µg/mL; Tmax ([4]; male Wistar rats): 0.5 h; half-life ([4]; male Wistar rats): 3.71 ± 0.16 h; k el ([4]; male Wistar rats): 5.28e-05 s⁻¹; solubility [5]: 2.7 ± 0.09 µg/mL (≈ 6.26 µM)
